# ChEMBL document CHEMBL5528001, “Synthetic product-based approach toward potential antileishmanial drug development” (Eur J Med Chem, 2024)
# Experiments:
# Leishmania amazonensis [1] = assay: Antileishmanial activity against Leishmania amazonensis MHOM/BR/75/Josefa promastigotes assessed as reduction in parasite viability after 72 hrs by Neubauer chamber counting method; assay type: functional, organism-based
# Leishmania amazonensis [2] = assay: Antileishmanial activity against Leishmania amazonensis promastigotes assessed as inhibition of parasite growth; assay type: functional; parameters: scale not given: the % may be the effect or the level left
# Leishmania aethiopica = assay: Antileishmanial activity against Leishmania aethiopica amastigotes assessed as inhibition of parasite growth measured after 24 hrs by Alamar blue based analysis; assay type: functional, organism-based
# Leishmania major [3] = assay: Antileishmanial activity against Leishmania major promastigotes assessed as reduction in parasite viability measured after 72 hrs by Giemsa-staining based microscopic analysis; assay type: functional, organism-based
# [4] = Selectivity index, ratio of CC50 for human HepG2 cells to EC50 for GFP-expressing Leishmania infantum intracellular amastigotes infected in human THP-1 derived macrophage cells; assay type: toxicity, cell-based; details: read-out: Ratio CC50/EC50
# Leishmania tropica = assay: Antileishmanial activity against Leishmania tropica promastigotes incubated for 24 hrs measured by alamar blue staining based fluorescence analysis; assay type: functional, organism-based
# Leishmania donovani [5] = assay: Antileishmanial activity against Leishmania donovani MHOM/IN/00/DEVI assessed as inhibition of parasite growth measured for 48 hrs by MTT assay; assay type: functional, organism-based
# HepG2 = assay: Cytotoxicity against human HepG2 cells assessed as reduction in cell growth measured after 48 hrs by SRB assay; assay type: functional
# Leishmania donovani [6] = assay: Antileishmanial activity against Leishmania donovani promastigotes assessed as inhibition of parasite growth; assay type: functional, organism-based
# Leishmania major [7] = assay: Antileishmanial activity against Leishmania major assessed as reduction in parasite growth; assay type: functional, organism-based
# Leishmania donovani [8] = assay: Antileishmanial activity against Leishmania donovani amastigotes infected in human THP-1 cells assessed as inhibition of parasite infection incubated for 72 hrs by DAPI staining based assay; assay type: functional, organism-based; details: THP-1, 72 h
# Leishmania donovani [9] = assay: Antileishmanial activity against Leishmania donovani amastigotes infected in J774.A1 macrophage assessed as inhibition of parasite growth by luciferase assay; assay type: functional, organism-based
# Leishmania donovani [10] = assay: Antileishmanial activity against Leishmania donovani MHOM/SD/62/1S assessed as inhibition of parasite growth by resazurin/alamar blue fluorometric assay; assay type: functional, organism-based
# Leishmania donovani [11] = assay: Antileishmanial activity against Leishmania donovani 9515 promastigotes assessed as inhibition of parasite growth incubated for 48 hrs by resazurin dye based assay; assay type: functional, organism-based; details: Leishmania donovani, 9515, 48 h
# Leishmania major [12] = assay: Antileishmanial activity against Leishmania major IR-173 promastigotes assessed as inhibition of parasite growth incubated for 48 hrs by resazurin dye based assay; assay type: functional, organism-based; details: IR-173, 48 h
# Leishmania donovani [13] = assay: Antileishmanial activity against Leishmania donovani MHOM/SD/62/1S-CL2D promastigotes assessed as reduction in parasite growth incubated for 24 hrs by resazurin dye based analysis; assay type: functional, organism-based
# Leishmania donovani [14] = assay: Antileishmanial activity against Leishmania donovani promastigotes assessed as parasitic proliferation inhibition incubated for 3 days by resazurin dye based assay; assay type: functional, organism-based
# HT-29 = assay: Antiproliferative activity against human HT-29 cells assessed as reduction in cell viability incubated for 48 hrs by MTT assay; assay type: functional, cell-based; details: HT-29, 48 h
# NCI-H1299 = assay: Antiproliferative activity against human NCI-H1299 cells assessed as reduction in cell viability incubated for 48 hrs by MTT assay; assay type: functional, cell-based; details: NCI-H1299, 48 h
# Leishmania major [15] = assay: Antileishmanial activity against Leishmania major MHOM/IL/80/Friendlin assessed as reduction in parasite growth incubated for 48 hrs by MTT assay; assay type: functional, organism-based
# [16] = Antileishmanial activity against Leishmania infantum BCN-150 promastigotes assessed as reduction in parasite growth incubated for 48 hrs by MTT assay; assay type: functional
# Leishmania donovani [17] = assay: Antileishmanial activity against Leishmania donovani MHOM/SD/62/1S amastigotes assessed as reduction in cell growth; assay type: functional, organism-based
# Leishmania braziliensis [18] = assay: Antileishmanial activity against Leishmania braziliensis MHOM/BR/75/M2903 strain promastigotes assessed as reduction in cell viability incubated for 48 hrs by MTT assay; assay type: functional, organism-based; details: MHOM/BR/75/M2903, 48 h
# Leishmania mexicana = assay: Antileishmanial activity against Leishmania mexicana promastigotes; assay type: functional, organism-based
# Leishmania major [19] = assay: Antileishmanial activity against Leishmania major amastigotes assessed as reduction in parasite growth incubated for 48 hrs by resazurin dye based analysis; assay type: functional, organism-based
# Leishmania braziliensis [20] = assay: Antileishmanial activity against Leishmania braziliensis promastigotes; assay type: functional, organism-based
# [21] = Cytotoxicity against African green monkey Vero cells assessed as reduction in cell growth; assay type: toxicity, cell-based, Chlorocebus sabaeus
# Leishmania donovani [22] = assay: Antileishmanial activity against Leishmania donovani amastigotes; assay type: functional, organism-based
# Leishmania donovani [23] = assay: Antileishmanial activity against Leishmania donovani amastigotes assessed as parasite growth inhibition incubated for 72 hrs by MTS assay; assay type: functional, organism-based
# [24] = Cytotoxicity against HEK293 cells assessed as reduction in cell viability incubated for 6 days by CellTiter-Glo luminescent cell viability assay; assay type: toxicity, cell-based; details: human
# [25] = Leishmania donovani, 72 h, read-out: IC50
smiles,measurement,setting,value
CN(C)c1ccc(-c2nc(C(=O)NCCCl)cc3c2[nH]c2ccccc23)cc1,IC50,Leishmania amazonensis [1],16.8 µM
C/C=C1\NC(=S)NC1=O,Activity,Leishmania amazonensis [2],28%
Cc1ccc(-n2cc(C3=NCCS3)c(-c3ccccc3)n2)cc1,IC50,Leishmania aethiopica,1.02 µg/mL
COC(=O)C1=C(C)NC(=S)NC1c1ccc(Cl)cc1 (stereo not drawn),EC50,Leishmania major [3],15.5 µM
Nc1ccn(C(=O)C2CCC3(CC2)OOC2(O3)C3CC4CC(C3)CC2C4)n1 (stereo not drawn),selectivity ratio,[4],< 5
same,IC50,Leishmania tropica,161 µM
C(=N/CCCN(N1CCCCC1)N1CCCCC1)/c1cc(-c2ccccc2)c2ccc3c(-c4ccccc4)cc(/C=N/CCCN(N4CCCCC4)N4CCCCC4)nc3c2n1,IC50,Leishmania donovani [5],2.52 µM
same,CC50,HepG2,1.64 µM
COc1ccc(Cn2c(C)cc(O)c(C(=O)Nc3ccc(C)cc3)c2=O)cc1,IC50,Leishmania donovani [6],55 µM
CCCCCCCCCn1cc(CN2CCN(C(=O)c3c(C)nc4ccc(C)cn34)CC2)nn1,IC50,Leishmania major [7],15.1 µM
CC(C)CC1NC(=S)NC1=O (stereo not drawn),Activity,Leishmania amazonensis [2],32%
CCCC(=O)N1N=C(c2ccccc2)CC1c1cn(-c2ccc(Cl)cc2)nc1-c1ccccc1 (stereo not drawn),IC50,Leishmania donovani [8],1.45 µM
same,IC50,Leishmania donovani [9],0.89 µM
O=C(N/N=C/c1ccc([N+](=O)[O-])o1)c1ccc(OCc2ccccc2)cc1,IC50,Leishmania donovani [10],4.53 µM
same,IC50,Leishmania donovani [11],4.48 µM
same,IC50,Leishmania major [12],38.5 µM
CN(C)c1ccc(-c2nc(C3=NCCO3)cc3c2[nH]c2ccccc23)cc1,IC50,Leishmania amazonensis [1],6.1 µM
CCCCCCCCCCCCCCCC(=O)CC(=O)N1CCC[C@H]1COP(=O)([O-])OCC[N+](C)(C)C,IC50,Leishmania donovani [13],52.6 µM
C(=N/CCCN(N1CCOCC1)N1CCOCC1)/c1cc(-c2ccccc2)c2ccc3c(-c4ccccc4)cc(/C=N/CCCN(N4CCOCC4)N4CCOCC4)nc3c2n1,IC50,Leishmania donovani [5],2.52 µM
same,CC50,HepG2,1.64 µM
CCOC(=O)C1=CNC(=S)NC1c1ccc(Cl)cc1 (stereo not drawn),IC50,Leishmania donovani [14]; [25],29.3 µg/mL
N#C[Se]/C=C/c1ccccc1,IC50,HT-29,11.9 µM
same,IC50,NCI-H1299,11.9 µM
same,IC50,Leishmania major [15],3.3 µM
same,IC50,[16],3.7 µM
Cc1ccc2c(NCCCCCNC(=O)c3cccc(/C=C/C(=O)c4ccc(C)o4)c3)ccnc2c1,IC50,Leishmania donovani [17],0.46 µM
COc1ccc(-n2cc(CCC(=O)OC3=C(C=C(C)C)C(=O)c4ccccc4C3=O)nn2)cc1,IC50,Leishmania braziliensis [18],15.9 µM
COc1cc(C(=O)/C=C/c2cccc([N+](=O)[O-])c2)ccc1OCC=C(C)C,IC50,Leishmania mexicana,4.57 µM
C(=N/CCCN(c1cccnc1)c1cccnc1)/c1cc(-c2ccccc2)c2ccc3c(-c4ccccc4)cc(/C=N/CCCN(c4cccnc4)c4cccnc4)nc3c2n1,IC50,Leishmania donovani [5],2.52 µM
same,CC50,HepG2,1.64 µM
N#C[Se]c1ccc2c(c1)OCO2,IC50,HT-29,61.2 µM
same,IC50,NCI-H1299,82.5 µM
same,IC50,Leishmania major [15],4.6 µM
same,IC50,[16],3.3 µM
Cc1ccc(-n2cc(C3N[C@H](C(N)=O)CS3)c(-c3ccccc3)n2)cc1 (stereo partly drawn),IC50,Leishmania aethiopica,1.02 µg/mL
CC(C)c1ccc(COc2ccc(C(=O)N/N=C\c3ccc([N+](=O)[O-])o3)cc2)cc1,IC50,Leishmania major [19],0.62 µM
C(=N/CCCN(c1ccncc1)c1ccncc1)/c1cc(-c2ccccc2)c2ccc3c(-c4ccccc4)cc(/C=N/CCCN(c4ccncc4)c4ccncc4)nc3c2n1,IC50,Leishmania donovani [5],2.52 µM
same,CC50,HepG2,1.64 µM
Cc1ccc2nc(C)c(C(=O)N3CCN(Cc4cn(-c5ccc(C(C)(C)C)cc5)nn4)CC3)n2c1,IC50,Leishmania major [7],15.1 µM
CC(=O)N1N=C(c2ccccc2)CC1c1cn(-c2ccc(C)cc2)nc1-c1ccccc1 (stereo not drawn),IC50,Leishmania donovani [8],1 µM
same,IC50,Leishmania donovani [9],0.05 µM
Cc1cc(OCCCCNC(C)(C)C)cc2oc3cc(OCCCCNC(C)(C)C)cc(O)c3c(=O)c12,IC50,Leishmania braziliensis [20],0.1 µM
same,IC50,[21],15.5 µM
CCCCCCCn1cc(CN2C(=O)CN(/N=C/c3ccc([N+](=O)[O-])o3)C2=O)nn1,IC50,Leishmania donovani [22],0.38 µM
same,IC50,Leishmania donovani [23],0.18 µM
same,IC50 at 6 days,[24],> 100 µM
CCOC(=O)C1=CNC(=O)NC1c1ccc(C)cc1 (stereo in doubt; 80),IC50,Leishmania donovani [14]; [25],29.3 µg/mL
CCOC(=O)C1=CNC(=O)NC1c1ccc(C)cc1 (stereo in doubt; 82),IC50,Leishmania donovani [14],28.3 µg/mL
